From patent US7838672B2, “Use of fused ring-1,2,4-benzotriazine derivatives as herbicides or plant growth regulators for the control of undesired plants or vegetation, compounds and compositions thereof, and processes for their preparation” (Bayer CropScience GmbH, priority 2003, dated 2010)

How the values were obtained:
[1] = system: Galium aparine, Abutilon theophrasti, Alopecurus myosuroides, Avena fatua, Ipomoea purpurea, Echinchloa crus-galli, Solanum nigrum and Cyperus iria; assay: Pre-emergence effect on weeds (greenhouse pot test, applied to the covering soil); assay type: in vivo; conditions: application rate of 3 kg or less of active ingredient per hectare, assessed three to four weeks after application vs untreated control
Protocol: Seeds of monocotyledonous and dicotyledonous weeds and/or crops were placed in sandy loam in wood-fibre-pots and covered with soil. The compounds formulated as wettable powders or emulsifiable concentrates were dissolved and diluted with water containing adjuvant and then applied to the surface of the covering soil at different dose rates at an application volume of 600 or 800 litres water per ha. After the treatment, the pots were placed in the greenhouse and kept under good growth conditions for the plants. The herbicidal effect was assessed visually as a percentage figure in comparison with the untreated control three to four weeks after application. 100% Efficacy refers to the complete damage of the assessed plants, 0% efficacy refers to the appearance of the untreated control.

[2] = system: Galium aparine, Abutilon theophrasti, Alopecurus myosuroides, Avena fatua, Ipomoea purpurea, Echinchloa crus-galli, Solanum nigrum and Cyperus iria; assay: Post-emergence effect on weeds (greenhouse pot test, applied over the top of plants at one-leaf-stage); assay type: in vivo; conditions: application rate of 3 kg or less of active ingredient per hectare, treated at one-leaf-stage, assessed three to four weeks after application vs untreated control
Protocol: Seeds of monocotyledonous and dicotyledonous weeds and/or crops were placed in sandy loam in wood-fibre-pots covered with soil and grown under good greenhouse conditions. The plants were treated at the one-leaf-stage two to three weeks after sowing. The compounds, formulated as wettable powders or emulsifiable concentrates were dissolved and diluted with water containing adjuvant and then applied over the top of the plants at different dose rates at an application volume of 600 or 800 litres water per ha. After the treatment, the pots were placed in the greenhouse and kept under good growth conditions for the plants. The herbicidal effect was assessed visually as a percentage figure in comparison with the untreated control three to four weeks after application

Row | SMILES | pre-emergence control of harmful weed species (herbicidal effect assessed visually) [1] | post-emergence control of the tested weed species (herbicidal effect assessed visually) [2] | melting point [°C]
1 | c1ccc2c(c1)NNc1nncn1-2 [Compound 6, 4,5-dihydro[[1,2,4]triazolo[3,4-c][1,2,4]benzotriazine] | very good pre-emergence control | very good post-emergence control | –
2 | c1ccc2c(c1)nnc1nncn12 [Compound 3, [1,2,4]triazolo[3,4-c][1,2,4]benzotriazine] | very good pre-emergence control | very good post-emergence control | 259 to 261
3 | [O-][n+]1nc2nncn2c2ccc(Br)cc21 [Compound 5, 7-bromo[1,2,4]triazolo[3,4-c][1,2,4]benzotriazine-5-oxide] | very good pre-emergence control | very good post-emergence control | –
